Blank lines part the entries; values can stand above or below the compound they belong to. Peptide text beside a SMILES is read from it. * marks the point of attachment. Hydrocinnamoyl = O=C(CCc1ccccc1)*; PhAc = O=C(Cc1ccccc1)*
Legend:
[1] = tested on: Experimental Amnesia caused in Rats by Scopolamine; experiment: Preventive effect against experimental amnesia caused in rats by scopolamine (passive avoidance, intraperitoneal administration); assay type: in vivo, Wister male rats; conditions: for No. of amnesic rats/No. of rats tested / Percentage amnesia / Avoidance time After 24 hrs. / Avoidance time After 48 hrs.: i.p., scopolamine 3 mg/kg i.p.
Method: Several of the anti-prolyl endopeptidase compounds according to the present invention were checked for their ability to prevent the inhibition of long-term memory fixation by scopolamine. […] One hour after the administration, electric shocks were applied to the rats so that they would acquire passive avoidance learning. Immediately thereafter, scopolamine was administered intraperitoneally to each rat in an amount of 3 mg per kg of body weight.
The results of the test were assessed both 24 hours and 48 hours after the administration of scopolamine. The number of amnesic rats and of sound rats was counted for each of the control group (rats to which the test compounds were not administered but to which only scopolamine and physiological saline were administered intraperitoneally) and the treated group (rats to which both the test compound and scopolamine were administered).

prolyl endopeptidase = prolyl endopeptidase (Elizabethkingia meningoseptica, UniProt P27028); experiment: Measurement of anti-prolyl endopeptidase activity (decomposition of Z-glycyl-prolyl-β-naphthylamide); assay type: biochemical; conditions: substrate Z-glycyl-proline-β-naphthylamide, phosphate buffer pH 7.0
prolyl endopeptidase, sequence (P27028 21-705): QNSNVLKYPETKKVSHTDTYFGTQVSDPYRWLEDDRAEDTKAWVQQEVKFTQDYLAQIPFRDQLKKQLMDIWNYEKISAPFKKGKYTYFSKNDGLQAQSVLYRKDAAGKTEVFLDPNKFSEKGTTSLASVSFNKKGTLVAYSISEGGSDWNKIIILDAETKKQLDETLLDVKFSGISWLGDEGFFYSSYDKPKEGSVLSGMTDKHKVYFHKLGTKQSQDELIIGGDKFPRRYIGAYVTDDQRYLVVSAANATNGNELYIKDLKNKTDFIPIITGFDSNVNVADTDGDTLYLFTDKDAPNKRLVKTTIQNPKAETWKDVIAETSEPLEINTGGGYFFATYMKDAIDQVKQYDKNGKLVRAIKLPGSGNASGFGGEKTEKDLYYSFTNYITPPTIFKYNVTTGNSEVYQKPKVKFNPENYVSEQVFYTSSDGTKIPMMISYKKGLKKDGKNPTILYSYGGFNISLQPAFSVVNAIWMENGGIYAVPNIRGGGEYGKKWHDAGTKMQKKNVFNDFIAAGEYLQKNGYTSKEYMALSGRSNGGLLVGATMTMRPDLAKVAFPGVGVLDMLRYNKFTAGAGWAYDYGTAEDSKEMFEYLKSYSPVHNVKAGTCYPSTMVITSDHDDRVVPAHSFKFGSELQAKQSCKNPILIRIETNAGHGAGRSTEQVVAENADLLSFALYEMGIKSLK
Method: The method of Yoshimoto and Tsuru (T. Yoshimoto and D. Tsuru, Agr. Biol. Chem. 42, 2417, 1978) was used to measure the anti-prolyl endopeptidase activities of several compounds according to the present invention. A mixture of 0.0025M Z--glycyl--proline--β--naphthylamide (0.25 ml), 0.1M phosphate buffer (pH 7.0; 0.99 ml) and a solution of a particular anti-prolyl endopeptidase compound (0.01 ml) was incubated in a test tube at 37° C. for 3 minutes. Thereafter […] of a solution of prolyl endopeptidase (0.2 U/ml) was added and the mixture was heated at 35° C. for 10 minutes. After the reaction, 2.0 ml of Triton x-100 in 1M acetate buffer (pH 4.0) was added to the reaction mixture until the final concentration of the surfactant was 10%. The mixture was left at a room temperature for 15 minutes and the absorbance (a) at 410 nm was measured.
A sample for a blind test was prepared by using the buffer solely in place of the anti-prolyl endopeptidase compound and its absorbance (b) was also measured. The percent inhibition of prolyl endopeptidase was calculated by the formula: [(b-a)/b]×100, and the amount of a specific compound needed to achieve 50% inhibition (IC50) was determined.

CDF-1 strain male mice = experiment: Acute toxicity test in mice; assay type: in vivo; conditions: i.p. in DMSO, five mice per group, observed 24 and 48 hours after administration
Method: The compounds of the present invention were checked for their acute toxicity in CDF-1 strain male mice (body weight: 27.2 to 30.1 g) purchased from Awazu Laboratory Animals Co., Ltd.
Test samples were prepared by dissolving the respective compounds in DMSO, and a portion (0.1 ml) of the so conditioned test sample was administered intraperitoneally to each of the mice used. Each of the treated groups consisted of five mice. After 24 hours and 48 hours had passed from the time of administration, respectively, the mice were observed.

Male mice of ddY-strain = experiment: Anti-hypoxia effect (survival time at 180 mmHg); assay type: in vivo; conditions: for No. of survival/used, Drug / Survival time, Drug (Mean ± S.E.): mice, 180 mmHg
Method: Male mice of ddY-strain weighing 25 to 34 g were allotted to groups consisting of 7 to 10 animals each. Each compound to be tested was suspended in physiological saline with 2 to 3 drops of Tween 80® added thereto, and administered intraperitoneally at the rate of 0.1 ml per 10 g of body weight.
Each mouse was put into a 1 l desiccator 30 minutes after the administration, and the pressure in the desiccator was reduced to 180 mmHg by means of a vacuum pump. The period from the start of pressure reduction to the respiratory arrest of the mouse was assumed to be the survival time (minute) of the mouse.
If the mouse survived more than 15 minutes, its survival time was recorded as being 15 minutes. A student's t-test was adopted for the significance analysis.

SMILES: C[C@H](NC(=O)CCCc1ccccc1)C(=O)N1CCC[C@H]1C=O [SUAM 1110, N--(4-phenyl)butanoyl--Ala--Pro--CHO]
- anti-amnesic effect (in words) ([1]; 0.025 mg/kg administered): very strong effects
- anti-amnesic effect (in words) ([1]; 0.1 mg/kg administered): very strong effects
- No. of amnesic rats/No. of rats tested ([1]; 250 μg/kg): 0/10
- Percentage amnesia ([1]; 250 μg/kg): 0
- Avoidance time After 24 hrs. ([1]; 250 μg/kg): 300.0 s
- Avoidance time After 48 hrs. ([1]; 250 μg/kg): 300.0 s
- No. of amnesic rats/No. of rats tested ([1]; 1 mg/kg): 1/10
- Percentage amnesia ([1]; 1 mg/kg): 10
- Avoidance time After 24 hrs. ([1]; 1 mg/kg): 272.8 s
- Avoidance time After 48 hrs. ([1]; 1 mg/kg): 271.2 s
- anti-amnesic effect (in words) ([1]; administration of 1 mg/kg): did not manifest the desired effect

SMILES: CC(C)CC(NC(=O)CCCc1ccccc1)C(=O)N1CCCC1C=O (stereo not shown) [SUAM 1115, N--(4-phenyl)butanoyl--Leu--Pro--CHO]
- IC50 (amount needed to achieve 50% inhibition of prolyl endopeptidase) (prolyl endopeptidase): 0.3 ng/test tube
- No. of amnesic rats/No. of rats tested ([1]; 25 μg/kg): 0/10
- Percentage amnesia ([1]; 25 μg/kg): 0
- Avoidance time After 24 hrs. ([1]; 25 μg/kg): 300.0 s
- Avoidance time After 48 hrs. ([1]; 25 μg/kg): 300.0 s
- anti-amnesic effect (in words) ([1]; 0.025 mg/kg administered): very strong effects
- No. of amnesic rats/No. of rats tested ([1]; 100 μg/kg): 0/10
- Percentage amnesia ([1]; 100 μg/kg): 0
- Avoidance time After 24 hrs. ([1]; 100 μg/kg): 300.0 s
- Avoidance time After 48 hrs. ([1]; 100 μg/kg): 300.0 s
- anti-amnesic effect (in words) ([1]; 0.1 mg/kg administered): very strong effects
- No. of amnesic rats/No. of rats tested ([1]; 250 μg/kg): 3/10
- Percentage amnesia ([1]; 250 μg/kg): 30
- Avoidance time After 24 hrs. ([1]; 250 μg/kg): 193.2 s
- Avoidance time After 48 hrs. ([1]; 250 μg/kg): 217.1 s
- anti-amnesic effect (in words) ([1]; administration of 1 mg/kg): did not manifest the desired effect

SMILES: CC(C)[C@H](NC(=O)CCCc1ccccc1)C(=O)N1CCC[C@H]1C=O [SUAM 1117, N--(4-phenyl)butanoyl--Val--Pro--CHO]
- IC50 (amount needed to achieve 50% inhibition of prolyl endopeptidase) (prolyl endopeptidase): 0.2 ng/test tube
- No. of amnesic rats/No. of rats tested ([1]; 25 μg/kg): 1/10
- Percentage amnesia ([1]; 25 μg/kg): 10
- Avoidance time After 24 hrs. ([1]; 25 μg/kg): 300.0 s
- Avoidance time After 48 hrs. ([1]; 25 μg/kg): 289.5 s
- anti-amnesic effect (in words) ([1]; 0.025 mg/kg administered): very strong effects
- No. of amnesic rats/No. of rats tested ([1]; 100 μg/kg): 0/10
- Percentage amnesia ([1]; 100 μg/kg): 0
- Avoidance time After 24 hrs. ([1]; 100 μg/kg): 300.0 s
- Avoidance time After 48 hrs. ([1]; 100 μg/kg): 300.0 s
- anti-amnesic effect (in words) ([1]; 0.1 mg/kg administered): very strong effects
- No. of amnesic rats/No. of rats tested ([1]; 250 μg/kg): 4/10
- Percentage amnesia ([1]; 250 μg/kg): 40
- Avoidance time After 24 hrs. ([1]; 250 μg/kg): 232.0 s
- Avoidance time After 48 hrs. ([1]; 250 μg/kg): 194.4 s
- No. of amnesic rats/No. of rats tested ([1]; 1 mg/kg): 6/10
- Percentage amnesia ([1]; 1 mg/kg): 60
- Avoidance time After 24 hrs. ([1]; 1 mg/kg): 161.6 s
- Avoidance time After 48 hrs. ([1]; 1 mg/kg): 125.0 s
- anti-amnesic effect (in words) ([1]; administration of 1 mg/kg): did not manifest the desired effect

SMILES: O=C[C@@H]1CCCN1C(=O)[C@@H]1CCCN1C(=O)CCCc1ccccc1 [SUAM 1231, N--(4-phenyl)butanoyl--Pro--Pro--CHO]
- IC50 (amount needed to achieve 50% inhibition of prolyl endopeptidase) (prolyl endopeptidase): 0.2 ng/test tube
- No. of amnesic rats/No. of rats tested ([1]; 20 μg/kg): 0/10
- Percentage amnesia ([1]; 20 μg/kg): 0
- Avoidance time After 24 hrs. ([1]; 20 μg/kg): 300.0 s
- anti-amnesic effect (in words) ([1]; at 0.020 mg/kg): strong effect
- Average-Dose at which the mice remained sound and showed no sign of intoxication (CDF-1 strain male mice): 634.6 mg/kg

SMILES: O=C[C@@H]1CCCN1C(=O)[C@H](Cc1ccccc1)NC(=O)CCCc1ccccc1 [SUAM 1234, N--(4-phenyl)butanoyl--Phe--Pro--CHO]
- IC50 (amount needed to achieve 50% inhibition of prolyl endopeptidase) (prolyl endopeptidase): 0.3 ng/test tube
- Survival time Ratio (Drug/Control) (Male mice of ddY-strain; 1 mg/kg i.p.): 1.24
- No. of survival/used, Drug (Male mice of ddY-strain; 1 mg/kg i.p.): 0/7
- Survival time, Drug (Mean ± S.E.) (Male mice of ddY-strain; 1 mg/kg i.p., control 2.32 ± 0.11, *P < 0.05): 2.88 ± 0.17 min
- Survival time Ratio (Drug/Control) (Male mice of ddY-strain; 10 mg/kg i.p.): 1.09
- No. of survival/used, Drug (Male mice of ddY-strain; 10 mg/kg i.p.): 0/7
- Survival time, Drug (Mean ± S.E.) (Male mice of ddY-strain; 10 mg/kg i.p., control 2.25 ± 0.15): 2.45 min

SMILES: CCCCC(NC(=O)CCCc1ccccc1)C(=O)N1CCCC1C=O (stereo not shown) [SUAM 1333, N--(4-phenyl)butanoyl--norLeu--Pro--CHO]
- IC50 (amount needed to achieve 50% inhibition of prolyl endopeptidase) (prolyl endopeptidase): 0.4 ng/test tube
- No. of amnesic rats/No. of rats tested ([1]; 20 μg/kg): 0/10
- Percentage amnesia ([1]; 20 μg/kg): 0
- Avoidance time After 24 hrs. ([1]; 20 μg/kg): 300.0 s
- anti-amnesic effect (in words) ([1]; at 0.020 mg/kg): strong effect
- Average-Dose at which the mice remained sound and showed no sign of intoxication (CDF-1 strain male mice): 707.7 mg/kg

SMILES: O=C[C@@H]1CCCN1C(=O)[C@@H]1CCCN1C(=O)Cc1ccccc1 [SUAM 1336, N--(2-phenyl)acetyl--Pro--Pro--CHO] (PhAc-Pro-Pro-aldehyde)
- IC50 (amount needed to achieve 50% inhibition of prolyl endopeptidase) (prolyl endopeptidase): 1.0 ng/test tube

Now from value to compound:

- IC50 (amount needed to achieve 50% inhibition of prolyl endopeptidase) (prolyl endopeptidase): 0.4 ng/test tube
SMILES: O=C[C@@H]1CCCN1C(=O)[C@@H]1CCCN1C(=O)CCc1ccccc1 [SUAM 1339, N--(3-phenyl)propionyl--Pro--Pro--CHO] (Hydrocinnamoyl-Pro-Pro-aldehyde)

- IC50 (amount needed to achieve 50% inhibition of prolyl endopeptidase) (prolyl endopeptidase): 0.2 ng/test tube
SMILES: O=C[C@@H]1CCCN1C(=O)[C@@H]1CCCN1C(=O)CCCCc1ccccc1 [SUAM 1342, N--(5-phenyl)pentanoyl--Pro--Pro--CHO]

- IC50 (amount needed to achieve 50% inhibition of prolyl endopeptidase) (prolyl endopeptidase): 0.7 ng/test tube
SMILES: CSCC[C@H](NC(=O)CCCc1ccccc1)C(=O)N1CCC[C@H]1C=O [SUAM 1345, N--(4-phenyl)butanoyl--Met--Pro--CHO]
